The record followed here is US9265845B2, “Imaging methods using engineered integrin binding peptides” (The Board of Trustees of the Leland Stanford Junior …, priority 2006, dated 2016).

Entries after “also recorded” stand apart in the source; their conditions may differ.

In one data set the target is αvβ3 integrin (Homo sapiens, UniProt P05106+P06756). The data set is described as follows: Competition of 125I-echistatin to detergent-solubilized plate-coated integrin. To be noted: 0.06 nM 125I echistatin, 5 nM and 50 nM peptide. Type of data set: binding. As for the experimental part: (§1) FIG. 10A through FIG. 10D is a series of histograms showing binding specificities to integrins αvβ3, αvβ5, α5β1, and αiibβ3 for engineered EETI-RGD peptides compared to controls. Error bars represent experiments performed in triplicate. Competition binding of 0.06 nM ^125I echistatin with 5 nM (black bars) and 50 nM (grey bars) unlabeled peptide to plate-coated integrins was measured. […] The engineered peptides have very little binding to αiibβ3 integrin.
(§2) This was done by competition of ^125I-echistatin to detergent-solubilized integrin receptors coated onto microtiter plates (see FIG. 10). […] This is consistent with previous studies which have shown αv integrin receptors can accommodate a wide range of RGD-containing cyclic structures. […] However, since α5β1 integrins are expressed on many tumors and are all involved in mediating angiogenesis and metastasis, a broad spectrum agent that targets all three integrins will be useful for diagnostic and therapeutic applications. With the exception of echistatin, all of the RGD-containing peptides bound weakly to the αiibβ3 receptor, showing the specificity of the present peptides for the αv and α5-containing integrin heterodimers. This characteristic is valuable for molecular imaging and therapeutic applications, since binding to αiibβ3 on platelet cells prevents blood clotting and would lead to non-specific in vivo effects.

The next data set has as its target α5β1 integrin (Homo sapiens, UniProt P05556+P08648). Described as above. The format is binding. To be noted: 0.06 nM 125I echistatin, 5 nM and 50 nM peptide. As for the experimental part: as §1, §2
The target in another data set is αvβ5 integrin (Homo sapiens, UniProt P06756+P18084). The data set is described as above. The format is binding. To be noted: 0.06 nM 125I echistatin, 5 nM and 50 nM peptide. The method, then:
as §1, §2

Data set [1] deals with U87MG glioblastoma cells. The data set is described as follows: Blocking of U87MG cell adhesion to fibronectin-coated plates. Type of data set: cell-based. An excerpt:
(§3) The present engineered peptides may be used in a variety of ways. If the peptides are attached to a surface, they may be used to attract/recruit cells to grow on the surface. For example, the present peptides may be applied to prosthetic devices, implants, bone grafts, and the like to promote tissue growth and healing at the site. They may be attached to culture dishes and promote attachment and differentiation of cells in culture. In addition, the present engineered peptides may be used to modulate cell binding to selected integrins such as α5β1, αvβ3 and αvβ5, particularly αvβ3, by adding the peptides to a cell culture to prevent cells expressing these integrins from adhering to a substrate. […] Also, the present 2.5F, 2.5D and 1.5B peptides were tested for blocking adhesion of U87MG glioblastoma cells to fibronectin-coated plates.
(§4) In another experiment, the ability of engineered knottin peptides to block U87MG cell adhesion to vitronectin- and fibronectin-coated microtiter plates. Vitronectin is a natural ligand for several integrins, including αvβ3 and αvβ5. The RGD-containing peptides were all able to inhibit U87MG cell adhesion to vitronectin-coated plates in a dose-responsive manner. […] Fibronectin also binds to several integrins, (including αvβ3 and α5β1), but the α5β1 integrin receptor is generally selective for fibronectin.

For data set [2], the system named is U87MG glioblastoma cells. As to the kind of experiment: Blocking of U87MG cell adhesion to vitronectin-coated plates. Type of data set: cell-based. To be noted: vitronectin-coated plates.
Description: as §3, §4
Whether the engineered AgRP peptides could block vitronectin-mediated adhesion to the U87MG cells was tested using an analogous assay. […] The AgRP peptides may not effectively block U87MG adhesion compared to the K562-αvβ3 cells because the αvβ5 integrins co-expressed on the surface of the U87MG cells could also contribute to vitronectin-mediated adhesion and compensate for the loss of αvβ3 integrin function.

For another data set, the system named is U87MG tumor. As to the kind of experiment: MicroPET imaging and biodistribution of radiolabeled peptides in U87MG tumor-bearing mice. Type of data set: in vivo, mouse. As for the experimental part:
MicroPET imaging of tumor-bearing mice is performed on a microPET R4 rodent model scanner (Concorde Microsystems Inc, Knoxyille, Tenn.). U87MG tumor bearing mice are injected with PET imaging agent via the tail vein. At various times post injection, the mice are anesthetized with 2% isoflurane, and 10 min static scans are obtained. Images are reconstructed by a two-dimensional ordered expectation maximum subset algorithm as previously described. Regions of interest (ROI) are drawn over the tumor on decay corrected whole body images and ROI derived % injected dose per gram of tissue is determined. Statistical analysis is performed using the student's t-test for unpaired data. A 95% confidence level is used to determine statistical significance.
Female athymic mice bearing U87MG tumors were injected with 80-150 μCi of ^64Cu-DOTA-knottin 2.5D or 7-9 μCi of [^18F]-FB-E[knottin 2.5D]. Static images were taken at various timepoints post injection using a microPET R4 rodent model scanner (Concorde Microsystems Inc, Knoxyille, Tenn.). […] Uptake was also observed in the kidney as both probes cleared through the bladder.
Mice are sacrificed by exanguinations at various time points postinjection. Blood, tumor and the major organs and tissues are collected, wet-weighed and measured in a γ-counter. The % injected dose per gram is determined for each sample. For each mouse, radioactivity of the tissue samples is calibrated against a known aliquot of the injectate. Values are reported as the mean±standard deviation.
The following Table 10 quantifies the ^64Cu-DOTA knottin uptake by direct tissue sampling of the mice up to 24 hours post injection and is reported in % ID (percent injected dose)/gram. Similar results were obtained with [^18F]-FB-E[knottin 2.5D].
A U87MG glioblastoma xenograft mouse model was used. U87MG cells were maintained at 37° C. in a humidified atmosphere containing 5% CO2 in Dulbecco's modified eagle medium, 10% heat-inactivated fetal bovine serum, and penicillin-streptomycin (all from Invitrogen). Animal procedures were carried out according to a protocol by Stanford University Administrative Panels on Laboratory Animal Care. Female athymic nude mice (nu/nu), obtained at 4-6 weeks of age (Charles River Laboratories, Inc.), were injected subcutaneously in the right or left shoulder with 2×10^7 U87MG glioblastoma cells suspended in 100 μL of PBS. Mice were used for in vivo imaging studies when their tumors reached approximately 8 to 10 millimeters in diameter.
U87MG tumor-bearing mice (n=3 or more for each probe) were injected with ˜100 μCi of ^64Cu-DOTA-conjugated peptides via the tail vein and imaged with a microPET R4 rodent model scanner (Siemens Medical) using 3 or 5 min static scans. […] Images were reconstructed by a two dimensional ordered expectation maximum subset algorithm and calibrated as previously described (Wu, Y, Zhang, X, Xiong, Z, et al. microPET imaging of glioma integrin {alpha}v{beta}3 expression using (64)Cu-labeled tetrameric RGD peptide. J Nucl Med 2005; 46:1707-18). ROIs were drawn over the tumor on decay-corrected whole body images using ASIPro VM software (Siemens Medical). The mean counts per pixel per minute were obtained from the ROI and converted to counts per milliliter per minute with a calibration constant. ROIs were converted to counts/g/min, and % ID/g values were determined assuming a tissue density of 1 g/mL. No attenuation correction was performed.

For the compound `CC[C@H](C)[C@@H]1NC(=O)[C@H]([C@@H](C)O)NC(=O)[C@@H](NC(=O)CN)CSSC[C@@H]2NC(=O)CNC(=O)[C@H](C)NC(=O)[C@H](CC(C)C)NC(=O)[C@@H]3CSSC[C@@H](C(=O)NCC(=O)O)NC(=O)[C@H](Cc4ccccc4)NC(=O)CNC(=O)[C@H](CC(N)=O)NC(=O)[C@@H]4CCCN4C(=O)CNC(=O)[C@H](CSSC[C@H](NC(=O)[C@H](CCC(=O)O)NC(=O)[C@H](CO)NC(=O)[C@@H]4CCCN4C(=O)[C@H](C)NC(=O)[C@H](Cc4c[nH]c5ccccc45)NC(=O)[C@H](CC(=O)O)NC(=O)CNC(=O)[C@H](CCCNC(=N)N)NC(=O)CNC1=O)C(=O)N[C@@H](CO)C(=O)N[C@@H](CCC(N)=O)C(=O)N[C@@H](CC(=O)O)C(=O)N[C@@H](CO)C(=O)N[C@@H](CC(=O)O)C(=O)N3)NC(=O)[C@H](C(C)C)NC2=O` [1.5B], the “binding to αvβ3 integrin, in words” value at αvβ3 integrin was “strongest levels of binding”. In addition, the “binding to α5β1 integrin, in words” value at α5β1 integrin is reported as “only minimal binding”. The “binding to αvβ5 integrin, in words” value on αvβ5 integrin is “strongest levels of binding”. Also, the “blocking of U87MG cell adhesion to fibronectin, in words” value in the data set with U87MG glioblastoma cells [1] is “only echistatin and polypeptide 2.5F blocked adhesion”.

For `CC(C)C[C@@H]1NC(=O)[C@@H]2CSSC[C@@H](C(=O)NCC(=O)O)NC(=O)[C@H](Cc3ccccc3)NC(=O)CNC(=O)[C@H](CC(N)=O)NC(=O)[C@@H]3CCCN3C(=O)CNC(=O)[C@@H]3CSSC[C@H](NC(=O)[C@H]([C@@H](C)O)NC(=O)[C@H](CC(C)C)NC(=O)[C@@H]4CCCN4C(=O)[C@@H]4CCCN4C(=O)[C@H](CC(N)=O)NC(=O)[C@H](CC(=O)O)NC(=O)CNC(=O)[C@H](CCCNC(=N)N)NC(=O)[C@@H]4CCCN4C(=O)[C@H](CCCNC(=N)N)NC(=O)[C@@H]4CCCN4C(=O)[C@@H](NC(=O)CN)CSSC[C@H](NC(=O)CNC(=O)[C@H](C)NC1=O)C(=O)N[C@@H](C(C)C)C(=O)N3)C(=O)N[C@@H](CO)C(=O)N[C@@H](CCC(N)=O)C(=O)N[C@@H](CC(=O)O)C(=O)N[C@@H](CO)C(=O)N[C@@H](CC(=O)O)C(=O)N2` [2.5F], the “blocking of U87MG cell adhesion to vitronectin, in words” value in the data set with U87MG glioblastoma cells [2] is on record as “blocked adhesion better than controls”. Further, the “binding to αvβ3 integrin, in words” value on αvβ3 integrin was “strongest levels of binding”. Further, the “binding to α5β1 integrin, in words” value at α5β1 integrin is listed as “binds with strong affinity”. In addition, the “binding to αvβ5 integrin, in words” value on αvβ5 integrin is on record as “strongest levels of binding”. Also, the “liver uptake, in words” value in the data set with U87MG tumor (64Cu-DOTA-labeled peptides, compared to 64Cu-DOTA-c(RGDyK)) was “lower liver uptake”. The “tumor/blood ratios, in words” value with U87MG tumor (PET studies, 4 h post injection, compared to 2.5D) was “much higher tumor/blood ratios”. Also, the “PET tumor targeting / imaging signal, in words” value with U87MG tumor (radiolabeled peptides, U87MG tumor-bearing mice) is “slower tumor washout compared to 2.5D”. In the data set on U87MG glioblastoma cells [1], the “blocking of U87MG cell adhesion to fibronectin, in words” value was “blocked adhesion; also recorded: able to block”.
